Tests used:
surrogate mothers = test: Pregnancy rate after transfer of nuclear transfer embryos into surrogate mothers; format: in vivo, dog
Protocol: The nuclear transfer embryos from Example 5 were surgically transferred into the oviduct of estrus synchronized surrogate mothers. The transfer was carried out within 4 hours after the activation of the nuclear transfer embryos. […] For the transfer, the surrogate mothers were anesthetized by vascular injection with 0.1 mg/kg acepromazine and 6 mg/kg propofol, and maintained at the anesthetized state using 2% isoflurane. Operation area of the anesthetized female dogs was aseptically operated and incised on the center of the abdomen according to general laparotomy so as to expose the oviduct. The abdominal cavity was stimulated by hand to draw the ovary, the oviduct and the uterus to the incision. The mesovarium of the drawn ovary was carefully handled to recognize the opening of the oviduct, and a 3.5 F Tom cat catheter (Sherwood, St. Louis, Mo.) equipped with a 1.0 ml tuberculin syringe (Latex free, Becton Dickinson & CO. Franklin lakes, N.J. 07417) was inserted into the oviduct to secure a sufficient space in the front of the catheter. Then, the nuclear transfer embryos were injected into the oviduct through the catheter. Whether the nuclear transfer embryos were successfully injected was observed under a microscope. The abdominal suture was performed with an absorbable suture material, and then, skin suture was performed. To prevent post-surgery infection, a broad range of antibiotic was injected for 3 days.
At 23 days after transferring the nuclear transfer embryos into the surrogate mothers, pregnancies were detected using a SONOACE 9900 (Medison Co. LTD, Seoul, Korea) ultrasound scanner with an attached 7.0 MHZ linear probe. Pregnancy was monitored by ultrasound every 2 weeks after initial confirmation. As a result, it was confirmed that the dogs had become pregnant, and the cloned dogs were produced by inducing natural delivery or performing Cesarean section. […]

[1] = tested on: reconstructed oocytes (canine cloned embryos); test: Nuclear remodeling of reconstructed oocytes after somatic cell nuclear transfer with roscovitine-treated donor cells; format: cell-based, dog
Protocol: Before performing somatic cell nuclear transfer, the cells were thawed and cultured for 24 hours in a medium supplemented with 15 μM roscovitine (i.e., DMEM+10% FBS+15 μM roscovitine). Then, the cells were treated with trypsin for about 2 minutes during somatic cell nuclear transfer and collected from the monolayer.
The nuclear donor cells prepared in Example 3 were microinjected into the enucleated oocytes prepared in Example 2. The nuclear donor cells were microinjected into a perivitelline space of the enucleated oocytes in the following manner. The enucleated oocytes were treated with […] phytohemagglutinin in the medium of Table 1, and the slit of the enucleated oocytes was held with a holding pipette. Then, a transfer pipette was inserted into the slit, and the single cells isolated from fibroblasts in Example 3 were injected between the cytoplasm and zona pellucida of the enucleated oocytes by the transfer pipette.
Then, the nuclear donor cell-oocyte couplets were placed in a fusion medium (containing 0.26 M mannitol, 0.1 mM MgSO4, 0.5 mM HEPES and 0.05% BSA) and interposed between two parallel electrodes attached to a micromanipulator (Nikon-Narishige, Japan). Then, the fusion of the couplets was induced by electrical stimulation applied twice at a voltage of 4 kV/cm for 15 μs using an electro-cell fusion apparatus (NEPA GENE Co., Chiba, Japan).
After 1 hour of electrical stimulation, the fusion of the nuclear donor cells with the oocyte cytoplasm was observed under a stereomicroscope. The fused embryos were selected and cultured for 1.5-4 hours in TCM-199 (Table 2) supplemented with 10% (v/v) FBS.
The nuclear transfer embryos obtained in Example 4 were cultured in mSOF containing 10 μM ionophore (Sigma) at 39° C. for 4 minutes, thus inducing the activation of the nuclear transfer embryos. Then, the nuclear transfer embryos were washed and further cultured in mSOF (Table 3) supplemented with 1.9 mM 6-dimethylaminopurin for 4 hours.
After performing canine somatic cell nuclear transfer into the enucleated oocytes using the microinjection method, the difference in the formation and change of nuclei between a control group not treated with roscovitine and a group treated with roscovitine for 24 hours, was examined.

[2] = 1 hpf, donor cells treated with roscovitine for 24 hours
[3] = 4 hpa, donor cells treated with roscovitine for 24 hours

Q: Which “No. of pregnant mothers” value (surrogate mothers; 556 embryos transferred into 29 surrogate mothers, donor cells treated with roscovitine) does the source give for `CC[C@@H](CO)Nc1nc(NCc2ccccc2)c2ncn(C(C)C)c2n1` [roscovitine] here?
A: 11

Q: And the “Pregnancy rate (based on transfer embryos)” value (surrogate mothers; 556 transfer embryos)?
A: 3.95%

Q: What about the “Pregnancy rate compared with control, in words” value (surrogate mothers; somatic cell nuclear transfer after treatment with roscovitine) of the same molecule?
A: very significantly increased

Q: What about the “No. of reconstructed oocytes with IN (intact nucleus)” value ([1]; 1 hpf (hour post fusion), donor cells treated with roscovitine for 24 hours) of the same molecule?
A: 11

Q: What about the “IN (%) for reconstructed oocytes” value [1, 2] of the same molecule?
A: (32.3 ± 7.0) %

Q: And the “No. of reconstructed oocytes with NE (nuclear enlargement)” value [1, 2]?
A: 0

Q: What about the “No. of reconstructed oocytes with NS (nuclear swelling)” value [1, 2] of the same molecule?
A: 0

Q: What about the “No. of reconstructed oocytes with PCC (premature chromosome condensation)” value [1, 2] of the same molecule?
A: 23

Q: And the “PCC (%) for reconstructed oocytes” value [1, 2]?
A: (67.6 ± 7.0) %

Q: What about the “No. of reconstructed oocytes with IN (intact nucleus)” value ([1]; 4 hpa (hour post activation), donor cells treated with roscovitine for 24 hours) of the same molecule?
A: 0

Q: And the “NE (%) for reconstructed oocytes” value [1, 3]?
A: (23.6 ± 7.5) %

Q: And the “NS (%) for reconstructed oocytes” value [1, 3]?
A: (73.6 ± 7.5) %

Q: And the “No. of reconstructed oocytes with NE (nuclear enlargement)” value [1, 3]?
A: 9

Q: And the “No. of reconstructed oocytes with NS (nuclear swelling)” value [1, 3]?
A: 28

Q: What about the “No. of reconstructed oocytes with PCC (premature chromosome condensation)” value [1, 3] of the same molecule?
A: 1

Q: And the “PCC (%) for reconstructed oocytes” value [1, 3]?
A: (2.6 ± 3.3) %

Q: And the “Nuclear swelling (NS) compared with control group, in words” value ([1]; 4 hours after activation of the fused embryos)?
A: occurred more in the treated group than in the control group

Q: And the “Rate of premature chromosome condensation (PCC) compared with control group, in words” value ([1]; after electrical fusion (1 hour elsewhere in the source))?
A: at a rate significantly higher than that in the control group

— US20100293626A1, “METHODS FOR IMPROVEMENT OF BIRTH RATES IN CANIDAE ON SOMATIC CELL NUCLEAR TRANSFER” (SEOUL NATIONAL UNIVERSITY INDUSTRY FOUNDATION, priority 2007, published 2010)
